Measured values from patent publication US6864233B2, “Fungicidal echinocandin derivatives and their preparation” (Aventis Pharma S.A., priority 2000, dated 2005).
*1 amine or outer side, *2 acyl side, *3 side chain or, on linkers, in order; H or OH if unused. Where a SMILES comes first, the peptide text is derived from it. Bridges are numbered along the chain shown (N, C = ends). [ ]: non-standard residue; d: D form. The star is where a group is joined. ξ: configuration not given here. X1 = CC(C)=CCCC(C)C1CCC2(C)C3=C(CCC12C)C1(C)CCC(OC(=O)*)C(C)(C)C1CC3; ξOrn(4,5-diOH) = O=C(C(CC(O)C(O)N[*:3])N[*:1])[*:2]; ξhTyr(βOH) = NC(C(=O)O)C(O)Cc1ccc(O)cc1; ξPro(3ξ-OH,4ξ-Me) = CC1CNC(C(=O)O)C1O; Hyp = O=C(O)[CH]1C[CH](O)CN1

Molecular target: T1, Glucan Synthase of Candida Albicans (Candida albicans, UniProt O13428)
T1 construct: 22.5 μg of membrane proteins are incubated in a mixture of 2 mM of; endogenous in cells
Assay: Inhibition of the glucan synthase of Candida albicans (14C-UDP glucose incorporation, membrane preparation)
Type: biochemical
Settings: Candida albicans membranes, 25° C., 1 hour; result in words
Description: A—Inhibition of the Glucan Synthase of Candida Albicans.
Candida albicans membranes are purified according to the process described by Tang et al Antimicrob. Agents Chemother 35, 99-103, 1991. 22.5 μg of membrane proteins are incubated in a mixture of 2 mM of ^14C-UDP glucose (specific activity=0.34 mCi./mmol, 50 μg of a α-amylase, 1 mM of dithiotreitol (DTT), 1 mM EDTA, 100 mM NaF, 7 μM of GTP-γ-S, 1M of sucrose and 50 mM of Tris-HCL (pH 7.8) in a volume of 100 μl. The medium is incubated at 25° C. for 1 hour and the reaction is terminated by adding TCA at a final concentration of 5%. The reaction mixture is transferred onto a pre-moistened glass fibre filter. The filter is washed, dried and its radioactivity is counted. Mulundocandin is used as a positive control. Control of the vehicle is carried out with the same quantity of 1% DMSO.

T1 sequence (O13428 1-1897): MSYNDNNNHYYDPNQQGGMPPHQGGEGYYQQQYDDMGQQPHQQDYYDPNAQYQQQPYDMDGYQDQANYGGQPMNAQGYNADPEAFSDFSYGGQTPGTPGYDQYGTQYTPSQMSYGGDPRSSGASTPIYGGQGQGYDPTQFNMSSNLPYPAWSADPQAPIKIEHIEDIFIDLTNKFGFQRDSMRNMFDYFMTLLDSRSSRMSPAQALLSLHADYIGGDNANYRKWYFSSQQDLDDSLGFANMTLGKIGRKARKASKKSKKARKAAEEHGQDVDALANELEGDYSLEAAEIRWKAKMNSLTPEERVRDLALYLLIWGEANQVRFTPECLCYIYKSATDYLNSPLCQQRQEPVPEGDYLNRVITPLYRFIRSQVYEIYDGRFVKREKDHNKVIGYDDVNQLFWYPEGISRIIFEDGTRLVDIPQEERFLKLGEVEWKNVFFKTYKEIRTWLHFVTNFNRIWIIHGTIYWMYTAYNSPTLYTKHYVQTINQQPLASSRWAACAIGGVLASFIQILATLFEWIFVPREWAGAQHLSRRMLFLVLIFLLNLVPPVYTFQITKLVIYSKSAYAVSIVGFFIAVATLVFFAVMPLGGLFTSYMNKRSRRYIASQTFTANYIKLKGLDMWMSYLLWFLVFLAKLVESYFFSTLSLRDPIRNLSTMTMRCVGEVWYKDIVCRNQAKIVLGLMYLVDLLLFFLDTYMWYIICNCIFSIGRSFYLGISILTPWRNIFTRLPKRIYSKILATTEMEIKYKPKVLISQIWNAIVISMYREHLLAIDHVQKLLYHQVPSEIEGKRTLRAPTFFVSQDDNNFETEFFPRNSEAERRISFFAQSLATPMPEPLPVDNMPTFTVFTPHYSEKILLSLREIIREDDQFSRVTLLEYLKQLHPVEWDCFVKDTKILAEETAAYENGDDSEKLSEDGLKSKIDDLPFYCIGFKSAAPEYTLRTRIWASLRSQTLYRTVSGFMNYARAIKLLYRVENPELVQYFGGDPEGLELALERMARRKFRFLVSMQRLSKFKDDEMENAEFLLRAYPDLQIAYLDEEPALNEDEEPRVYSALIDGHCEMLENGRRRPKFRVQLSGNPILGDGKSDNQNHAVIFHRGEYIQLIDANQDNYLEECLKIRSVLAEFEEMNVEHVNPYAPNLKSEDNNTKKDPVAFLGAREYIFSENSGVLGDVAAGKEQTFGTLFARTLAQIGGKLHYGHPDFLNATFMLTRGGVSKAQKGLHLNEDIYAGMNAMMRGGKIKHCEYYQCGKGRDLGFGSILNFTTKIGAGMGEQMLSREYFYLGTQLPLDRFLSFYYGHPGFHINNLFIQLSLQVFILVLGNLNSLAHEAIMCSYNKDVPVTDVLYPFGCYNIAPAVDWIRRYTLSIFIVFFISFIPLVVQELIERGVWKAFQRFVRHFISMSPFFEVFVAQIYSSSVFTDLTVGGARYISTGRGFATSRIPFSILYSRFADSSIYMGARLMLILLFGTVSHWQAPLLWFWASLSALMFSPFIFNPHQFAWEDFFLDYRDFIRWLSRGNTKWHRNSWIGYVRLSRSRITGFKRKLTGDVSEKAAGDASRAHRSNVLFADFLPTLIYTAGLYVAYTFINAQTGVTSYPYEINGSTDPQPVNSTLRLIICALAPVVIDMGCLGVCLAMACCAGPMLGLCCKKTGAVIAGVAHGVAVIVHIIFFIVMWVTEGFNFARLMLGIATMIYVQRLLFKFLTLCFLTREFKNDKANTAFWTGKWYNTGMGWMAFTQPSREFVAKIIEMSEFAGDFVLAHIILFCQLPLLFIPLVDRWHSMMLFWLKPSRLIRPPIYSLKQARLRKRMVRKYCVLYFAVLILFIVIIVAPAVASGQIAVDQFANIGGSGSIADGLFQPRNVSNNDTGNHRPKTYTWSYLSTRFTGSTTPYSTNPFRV
T1 sequence (O42825 1-195 partner limits assumed): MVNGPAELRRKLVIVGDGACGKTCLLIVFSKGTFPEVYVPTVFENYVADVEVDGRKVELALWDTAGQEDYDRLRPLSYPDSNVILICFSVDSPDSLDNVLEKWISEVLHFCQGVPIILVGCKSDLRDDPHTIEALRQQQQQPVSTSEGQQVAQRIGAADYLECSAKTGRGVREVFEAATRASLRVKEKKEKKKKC

1-[(4R,5R)-4,5-dihydroxy-N2-[[[(3β, 22E)-ergosta-5,7,22-trien-3-yl]oxy]carbonyl]-L-ornithine]-mulundocandin [Example 3]
Inhibition of the Glucan Synthase of Candida Albicans: good activity

CC(C)=CCCC(C)C1CCC2(C)C3=C(CCC12C)C1(C)CCC(OC(=O)NC2CC(O)C(O)NC(=O)C(CO)NC(=O)C4C(O)C(C)CN4C(=O)C(C(O)Cc4ccc(O)cc4)NC(=O)C4CC(O)CN4C(=O)C(C(C)O)NC2=O)C(C)(C)C1CC3 [Example 2, 1-[(4R,5R)-4,5-dihydroxy-N2-[[[(3β)-lanosta-8,24-dien-3-yl]oxy]carbonyl]-L-ornithine]-deoxymulundocandin] (X1-[ξOrn(4,5-diOH)]T[Hyp][ξhTyr(βOH)][ξPro(3ξ-OH,4ξ-Me)]S; lactam 1-C; configuration not given here)
Inhibition of the Glucan Synthase of Candida Albicans: good activity
